Assay results taken from ChEMBL document CHEMBL1130019, “Discovery of potent isoxazoline glycoprotein IIb/IIIa receptor antagonists” (J Med Chem, 1997).
Values belong to the compound of their own block, whether it stands above or below them.

Experiments:
Integrin alpha-M/beta-2 [1] = molecular target: T1, Integrin alpha-M/beta-2 (Homo sapiens, UniProt P05107+P11215); assay: Inhibition of Mac-1 interaction with ICAM; type: protein-complex assay
[2] = molecular target: T2, Integrin alpha-IIb/beta-3 (Homo sapiens, UniProt P05106+P08514); assay: Inhibition of Fibrinogen Receptor integrin alphaIIb-beta3 in ELISA; type: protein-complex assay
Target sequence in this assay (P05106 27-788 limits assumed): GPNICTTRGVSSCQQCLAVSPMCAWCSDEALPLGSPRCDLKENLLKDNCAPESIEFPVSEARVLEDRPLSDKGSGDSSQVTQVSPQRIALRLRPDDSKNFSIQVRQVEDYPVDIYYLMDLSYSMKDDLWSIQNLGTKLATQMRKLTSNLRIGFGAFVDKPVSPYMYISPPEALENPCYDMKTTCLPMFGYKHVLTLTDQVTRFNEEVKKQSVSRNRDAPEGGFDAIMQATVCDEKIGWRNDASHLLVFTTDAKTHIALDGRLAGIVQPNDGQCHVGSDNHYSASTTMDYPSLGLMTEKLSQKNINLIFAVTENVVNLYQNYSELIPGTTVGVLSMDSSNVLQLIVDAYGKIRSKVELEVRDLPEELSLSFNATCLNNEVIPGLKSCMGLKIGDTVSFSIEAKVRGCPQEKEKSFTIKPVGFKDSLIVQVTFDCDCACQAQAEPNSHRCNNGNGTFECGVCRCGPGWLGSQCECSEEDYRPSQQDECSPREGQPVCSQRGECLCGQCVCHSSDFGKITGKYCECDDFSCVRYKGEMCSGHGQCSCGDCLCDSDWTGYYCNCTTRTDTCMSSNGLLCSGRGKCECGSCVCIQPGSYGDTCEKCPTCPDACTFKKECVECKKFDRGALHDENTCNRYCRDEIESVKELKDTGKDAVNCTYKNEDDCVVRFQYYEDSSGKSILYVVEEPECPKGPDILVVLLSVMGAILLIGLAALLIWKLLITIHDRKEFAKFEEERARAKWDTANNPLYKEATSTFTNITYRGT
Target sequence in this assay (P08514 32-887 limits assumed): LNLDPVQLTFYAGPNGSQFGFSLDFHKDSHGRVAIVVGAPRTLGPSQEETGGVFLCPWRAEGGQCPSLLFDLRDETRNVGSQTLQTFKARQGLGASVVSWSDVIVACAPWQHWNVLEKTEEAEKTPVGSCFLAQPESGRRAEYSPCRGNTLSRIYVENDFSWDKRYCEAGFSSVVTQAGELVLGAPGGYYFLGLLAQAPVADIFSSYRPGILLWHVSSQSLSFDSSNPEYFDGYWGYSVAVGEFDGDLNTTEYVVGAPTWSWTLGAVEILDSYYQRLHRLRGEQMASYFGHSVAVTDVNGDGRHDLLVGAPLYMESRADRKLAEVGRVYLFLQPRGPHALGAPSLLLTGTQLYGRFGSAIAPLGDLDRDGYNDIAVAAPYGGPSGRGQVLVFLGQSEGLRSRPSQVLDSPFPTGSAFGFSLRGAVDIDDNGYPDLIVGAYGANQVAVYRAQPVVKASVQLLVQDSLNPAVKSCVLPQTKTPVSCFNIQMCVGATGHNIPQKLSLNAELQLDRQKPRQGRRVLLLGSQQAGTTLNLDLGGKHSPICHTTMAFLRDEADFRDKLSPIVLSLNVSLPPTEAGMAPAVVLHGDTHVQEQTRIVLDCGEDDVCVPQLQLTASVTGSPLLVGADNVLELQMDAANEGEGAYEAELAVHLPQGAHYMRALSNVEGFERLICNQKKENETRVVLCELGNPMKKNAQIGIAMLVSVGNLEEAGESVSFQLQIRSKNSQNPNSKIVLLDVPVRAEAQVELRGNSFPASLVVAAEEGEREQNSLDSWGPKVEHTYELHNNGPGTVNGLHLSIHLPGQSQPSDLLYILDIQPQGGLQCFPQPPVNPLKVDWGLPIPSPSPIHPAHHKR
Target sequence in this assay (P08514 891-1039 limits assumed): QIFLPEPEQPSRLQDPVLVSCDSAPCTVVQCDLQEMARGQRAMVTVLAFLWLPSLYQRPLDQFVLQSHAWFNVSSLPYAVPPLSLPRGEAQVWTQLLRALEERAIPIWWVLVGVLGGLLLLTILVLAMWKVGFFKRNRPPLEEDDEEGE

Integrin alpha-5/beta-1 = Integrin alpha-5/beta-1 (Homo sapiens, UniProt P05556+P08648); assay: Inhibition of interaction between HUVEC cells and fibronectin; type: cell-based
[3] = molecular target: T2, Integrin alpha-IIb/beta-3; assay: Inhibition of [125I]fibrinogen binding to activated human platelets; type: functional
Target sequence in this assay (P05106 27-788 limits assumed): as the sequence (P05106 27-788 limits assumed) above
Target sequence in this assay (P08514 32-887 limits assumed): as the sequence (P08514 32-887 limits assumed) above
Target sequence in this assay (P08514 891-1039 limits assumed): as the sequence (P08514 891-1039 limits assumed) above

[4] = Inhibition of interaction between HUVEC cells and Vitronectin; type: cell-based, Homo sapiens
Integrin alpha-M/beta-2 [5] = molecular target: T1, Integrin alpha-M/beta-2; assay: Inhibition of Mac-1 integrin (alphaM-beta2); type: protein-complex assay
Integrin alpha-4/beta-1 = Integrin alpha-4/beta-1 (Homo sapiens, UniProt P05556+P13612); assay: Inhibition of VLA-4 integrin alpha4-beta1 interaction with VCAM; type: protein-complex assay
[6] = test system: Integrin alpha-IIb/beta-3 (Canis lupus familiaris); assay: Inhibition of ADP-mediated platelet aggregation over 6 hr; details: concentration not given here
[7] = molecular target: T2, Integrin alpha-IIb/beta-3; assay: Inhibition of human platelet aggregation induced by ADP at 100 uM; type: functional

T1 sequence (P05107 23-769 limits assumed, other chains not shown): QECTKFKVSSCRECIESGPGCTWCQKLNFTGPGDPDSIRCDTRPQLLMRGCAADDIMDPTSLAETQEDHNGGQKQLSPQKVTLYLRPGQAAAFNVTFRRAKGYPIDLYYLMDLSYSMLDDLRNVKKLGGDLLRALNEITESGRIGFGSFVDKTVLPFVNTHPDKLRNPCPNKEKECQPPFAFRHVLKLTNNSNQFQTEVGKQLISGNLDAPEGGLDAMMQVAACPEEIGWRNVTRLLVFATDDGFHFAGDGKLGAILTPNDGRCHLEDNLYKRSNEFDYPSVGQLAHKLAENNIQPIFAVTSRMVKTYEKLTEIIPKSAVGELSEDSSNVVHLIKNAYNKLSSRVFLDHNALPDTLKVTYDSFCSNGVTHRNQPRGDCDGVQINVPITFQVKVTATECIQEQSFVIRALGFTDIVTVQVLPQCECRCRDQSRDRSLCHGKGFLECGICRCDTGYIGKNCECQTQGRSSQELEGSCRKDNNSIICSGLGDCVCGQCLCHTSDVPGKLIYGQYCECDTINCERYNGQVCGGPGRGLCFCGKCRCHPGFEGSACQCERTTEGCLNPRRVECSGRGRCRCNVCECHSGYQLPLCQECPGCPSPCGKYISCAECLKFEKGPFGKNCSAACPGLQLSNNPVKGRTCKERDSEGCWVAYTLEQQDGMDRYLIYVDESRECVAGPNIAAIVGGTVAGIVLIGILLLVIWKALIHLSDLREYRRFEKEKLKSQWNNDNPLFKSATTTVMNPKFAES
Sequence of Integrin alpha-5/beta-1 (P05556 21-798 limits assumed): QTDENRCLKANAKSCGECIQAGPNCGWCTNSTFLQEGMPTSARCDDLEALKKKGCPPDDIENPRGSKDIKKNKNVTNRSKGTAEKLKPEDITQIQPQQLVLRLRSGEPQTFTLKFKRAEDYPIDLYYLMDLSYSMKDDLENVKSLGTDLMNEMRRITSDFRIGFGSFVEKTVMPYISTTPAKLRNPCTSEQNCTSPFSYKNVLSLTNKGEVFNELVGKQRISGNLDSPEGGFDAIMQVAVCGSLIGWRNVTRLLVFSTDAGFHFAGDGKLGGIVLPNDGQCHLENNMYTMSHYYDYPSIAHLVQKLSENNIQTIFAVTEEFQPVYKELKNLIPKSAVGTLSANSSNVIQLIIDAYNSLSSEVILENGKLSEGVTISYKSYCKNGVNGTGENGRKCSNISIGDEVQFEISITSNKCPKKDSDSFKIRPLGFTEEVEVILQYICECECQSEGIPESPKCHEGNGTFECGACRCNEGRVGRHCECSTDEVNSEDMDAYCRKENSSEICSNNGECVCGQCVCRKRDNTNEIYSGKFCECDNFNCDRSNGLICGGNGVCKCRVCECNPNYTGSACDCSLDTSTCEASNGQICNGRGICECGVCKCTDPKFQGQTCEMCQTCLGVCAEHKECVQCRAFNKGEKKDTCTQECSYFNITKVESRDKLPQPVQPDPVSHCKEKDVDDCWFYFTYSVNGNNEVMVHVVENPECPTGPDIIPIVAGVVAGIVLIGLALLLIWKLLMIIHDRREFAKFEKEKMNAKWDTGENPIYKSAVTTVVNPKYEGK
Sequence of Integrin alpha-5/beta-1 (P08648 42-894 limits assumed): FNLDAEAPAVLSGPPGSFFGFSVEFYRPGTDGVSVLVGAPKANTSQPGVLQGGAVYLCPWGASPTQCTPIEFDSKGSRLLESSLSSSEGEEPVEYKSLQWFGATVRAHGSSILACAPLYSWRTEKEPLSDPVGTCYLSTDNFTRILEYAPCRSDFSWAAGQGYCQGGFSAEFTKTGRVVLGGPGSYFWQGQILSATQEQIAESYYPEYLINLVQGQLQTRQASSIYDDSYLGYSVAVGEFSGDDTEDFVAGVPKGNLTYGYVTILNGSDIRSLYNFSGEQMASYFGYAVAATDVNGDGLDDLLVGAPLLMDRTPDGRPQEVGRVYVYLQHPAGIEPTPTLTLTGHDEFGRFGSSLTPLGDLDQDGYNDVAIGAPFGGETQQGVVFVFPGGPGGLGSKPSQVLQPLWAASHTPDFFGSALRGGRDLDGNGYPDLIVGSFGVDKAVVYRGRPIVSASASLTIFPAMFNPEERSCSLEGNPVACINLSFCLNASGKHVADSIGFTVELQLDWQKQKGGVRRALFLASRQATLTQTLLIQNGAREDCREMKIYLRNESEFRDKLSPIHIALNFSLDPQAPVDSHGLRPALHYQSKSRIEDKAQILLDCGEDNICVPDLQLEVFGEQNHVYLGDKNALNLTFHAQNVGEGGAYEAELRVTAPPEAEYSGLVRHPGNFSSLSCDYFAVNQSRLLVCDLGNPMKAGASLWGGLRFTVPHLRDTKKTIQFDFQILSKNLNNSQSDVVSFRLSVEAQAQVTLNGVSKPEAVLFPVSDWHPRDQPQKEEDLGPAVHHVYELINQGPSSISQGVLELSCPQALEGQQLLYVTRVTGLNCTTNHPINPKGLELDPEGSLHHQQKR
Sequence of Integrin alpha-5/beta-1 (P08648 895-1049 limits assumed): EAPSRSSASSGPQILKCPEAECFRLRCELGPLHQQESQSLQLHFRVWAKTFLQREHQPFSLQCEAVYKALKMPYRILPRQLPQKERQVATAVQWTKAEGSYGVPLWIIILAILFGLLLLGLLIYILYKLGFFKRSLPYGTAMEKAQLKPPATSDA

IC50 (Integrin alpha-M/beta-2 [1]): 100 µM
IC50 [2]: 0.0011 µM
IC50 (Integrin alpha-5/beta-1): 180 µM
IC50 [3]: 0.01 µM
IC50 [4]: 200 µM
IC50 (Integrin alpha-M/beta-2 [5]): > 100 µM
IC50 (Integrin alpha-4/beta-1): > 100 µM
Compound: N=C(N)c1ccc(C2=NOC(CC(=O)NCCC(=O)O)C2)cc1 (stereo unspecified)

inhibition [6]: 90%
Compound: CCOC(=O)CCNC(=O)CC1CC(c2ccc(C(=N)N)cc2)=NO1 (stereo unspecified)

inhibition [7]: 16.6%
Compound: O=C(O)CCN1C(=O)CC2(CC(CCC3CCNCC3)=NO2)C1=O (stereo unspecified)

inhibition [7]: 24%
Compound: O=C(O)CCCN1C(=O)CC2(CC(CCCC3CCNCC3)=NO2)C1=O (stereo unspecified)

inhibition [7]: 16.3%
Compound: O=C(O)CCCN1C(=O)CC2(CC(CCC3CCNCC3)=NO2)C1=O (stereo unspecified)
